Source: ChEMBL document CHEMBL2073863, “Cloning and characterization of two human polyspecific organic cation transporters” (DNA Cell Biol, 1997)
“And” between values parts separate entries of the source, which are not always exact repeats. Equal entries are not always repeated.

T1: Solute carrier family 22 member 2 (Homo sapiens, UniProt O15244)
T1 sequence (O15244 whole entry): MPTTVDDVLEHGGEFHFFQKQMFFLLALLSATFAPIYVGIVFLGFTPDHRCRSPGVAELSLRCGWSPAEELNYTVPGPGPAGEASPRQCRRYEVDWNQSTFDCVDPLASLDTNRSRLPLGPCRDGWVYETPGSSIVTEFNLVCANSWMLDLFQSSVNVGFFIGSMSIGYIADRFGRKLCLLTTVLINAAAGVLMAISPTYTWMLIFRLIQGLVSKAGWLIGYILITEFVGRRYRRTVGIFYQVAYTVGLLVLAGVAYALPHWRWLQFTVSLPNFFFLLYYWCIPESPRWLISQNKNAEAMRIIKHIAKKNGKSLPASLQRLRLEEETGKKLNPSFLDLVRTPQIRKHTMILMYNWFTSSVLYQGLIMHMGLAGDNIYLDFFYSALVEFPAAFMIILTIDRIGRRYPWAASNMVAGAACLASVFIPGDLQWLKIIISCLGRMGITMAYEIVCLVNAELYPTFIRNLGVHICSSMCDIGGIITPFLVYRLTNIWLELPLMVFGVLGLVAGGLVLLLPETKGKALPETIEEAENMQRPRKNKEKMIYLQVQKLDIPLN

T2: Solute carrier family 22 member 1 (Homo sapiens, UniProt O15245)
T2 sequence (O15245 whole entry): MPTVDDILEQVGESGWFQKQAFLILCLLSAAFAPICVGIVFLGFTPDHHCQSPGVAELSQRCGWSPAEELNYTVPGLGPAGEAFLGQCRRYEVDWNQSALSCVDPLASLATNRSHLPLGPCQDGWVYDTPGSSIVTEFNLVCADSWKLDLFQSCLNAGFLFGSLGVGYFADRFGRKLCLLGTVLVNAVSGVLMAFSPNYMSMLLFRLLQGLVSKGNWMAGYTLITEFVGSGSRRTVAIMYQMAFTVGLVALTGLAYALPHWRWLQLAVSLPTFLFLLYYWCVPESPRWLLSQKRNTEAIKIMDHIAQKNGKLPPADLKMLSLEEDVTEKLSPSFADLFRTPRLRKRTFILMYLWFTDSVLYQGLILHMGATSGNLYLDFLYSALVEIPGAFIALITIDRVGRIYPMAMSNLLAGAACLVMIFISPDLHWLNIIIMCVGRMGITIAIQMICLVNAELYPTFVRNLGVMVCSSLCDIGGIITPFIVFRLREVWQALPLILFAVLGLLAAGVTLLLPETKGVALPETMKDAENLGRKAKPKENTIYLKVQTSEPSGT


Legend:
[1] = target: T1, Solute carrier family 22 member 2; test: TP_TRANSPORTER: inhibition of TEA uptake in Xenopus laevis oocytes; assay type: functional, cell-based, Oocyte
[2] = target: T2, Solute carrier family 22 member 1; test: (§1) TP_TRANSPORTER: uptake in Xenopus laevis oocytes; assay type: functional, cell-based; conditions: oocyte
[3] = substrate: C=C[C@H]1C[N@@]2CC[C@H]1C[C@H]2[C@H](O)c1ccnc2ccc(OC)cc12; test: TP_TRANSPORTER: uptake (electrogenesis) in Xenopus laevis oocytes; assay type: functional, cell-based, Oocyte
[4] = substrate: CNC(=O)c1cccnc1; test: as §1; assay type: functional, cell-based, Oocyte
[5] = substrate: CC[N+](CC)(CC)CC; test: cells, lysate or membranes named
[6] = substrate: C[N+](C)(C)CCO; test: cells, lysate or membranes named

| Molecule | Ki [1] [µM] | Activity [2] | also measured |
| --- | --- | --- | --- |
| CC[n+]1c(CC2C=C(C)N=C(c3ccccc3)N2C)ccc2ccccc21 (centres undefined) [Cyanine-863] | 0.21 | – | – |
| CCN1/C(=C/c2ccc3ccccc3[n+]2CC)C=Cc2ccccc21 | 0.1 | – | – |
| C[n+]1ccc(-c2ccccc2)cc1 | 2.4 | substrate [not saturable] | – |
| COc1cc(C(O)CNC(C)C)ccc1O (centres undefined) [METIPRENALINE] | 570 | – | – |
| CC[N+](CC)(CC)CC [TETRYLAMMONIUM] | – | substrate [not saturable] | – |
| CC(C)C(c1ccccc1)C(O)CC[N+]1(C)CCCCC1 (centres undefined) [MEPIPERPHENIDOL BROMIDE] | 4.8 | – | – |
| CCCCC[N+](CCCCC)(CCCCC)CCCCC [TETRAPENTYLAMMONIUM] | 1.5 | – | – |
| CNC(=O)c1cccnc1 [NICOTINYL METHYLAMIDE] | 266 | substrate [not saturable] | – |
| Solute carrier family 22 member 2 (Homo sapiens) (protein) MPTTVDDVLEHGGEFHFFQKQMFFLLALLSATFAPIYVGIVFLGFTPDHRCRSPGVAELSLRCGWSPAEELNYTVPGPGPAGEASPRQCRRYEVDWNQSTFDCVDPLASLDTNRSRLPLGPCRDGWVYETPGSSIVTEFNLVCANSWMLDLFQSSVNVGFFIGSMSIGYIADRFGRKLCLLTTVLINAAAGVLMAISPTYTWMLIFRLIQGLVSKAGWLIGYILITEFVGRRYRRTVGIFYQVAYTVGLLVLAGVAYALPHWRWLQFTVSLPNFFFLLYYWCIPESPRWLISQNKNAEAMRIIKHIAKKNGKSLPASLQRLRLEEETGKKLNPSFLDLVRTPQIRKHTMILMYNWFTSSVLYQGLIMHMGLAGDNIYLDFFYSALVEFPAAFMIILTIDRIGRRYPWAASNMVAGAACLASVFIPGDLQWLKIIISCLGRMGITMAYEIVCLVNAELYPTFIRNLGVHICSSMCDIGGIITPFLVYRLTNIWLELPLMVFGVLGLVAGGLVLLLPETKGKALPETIEEAENMQRPRKNKEKMIYLQVQKLDIPLN | – | – | Km [3]: 2.6 µM; Km [4]: 300 µM; Km [5]: 31 µM and 76 µM; Km [6]: 190 µM and 210 µM |
